Reference: US7851474B2, “Dipiperazinyl ketones and related analogues” (Neurogen Corporation, priority 2005, dated 2010)
pKi: −log10 of the molar value.

Each molecule was assayed against T1, chimeric human H3 receptor (Homo sapiens, UniProt Q9Y5N1, E19D) (assay: Chimeric human H3 receptor GTP binding assay (agonist-stimulated GTP-gamma35S binding, Example 7)). Details: assay of Example 7; symbol * in column headed Ki of Table II; read-out: Ki.
T1 construct: made in house; host or cells: Sf9 insect cells (baculovirus infection); P2 membrane preparation
T1 sequence (Q9Y5N1 with tags, fused parts or gaps E19D): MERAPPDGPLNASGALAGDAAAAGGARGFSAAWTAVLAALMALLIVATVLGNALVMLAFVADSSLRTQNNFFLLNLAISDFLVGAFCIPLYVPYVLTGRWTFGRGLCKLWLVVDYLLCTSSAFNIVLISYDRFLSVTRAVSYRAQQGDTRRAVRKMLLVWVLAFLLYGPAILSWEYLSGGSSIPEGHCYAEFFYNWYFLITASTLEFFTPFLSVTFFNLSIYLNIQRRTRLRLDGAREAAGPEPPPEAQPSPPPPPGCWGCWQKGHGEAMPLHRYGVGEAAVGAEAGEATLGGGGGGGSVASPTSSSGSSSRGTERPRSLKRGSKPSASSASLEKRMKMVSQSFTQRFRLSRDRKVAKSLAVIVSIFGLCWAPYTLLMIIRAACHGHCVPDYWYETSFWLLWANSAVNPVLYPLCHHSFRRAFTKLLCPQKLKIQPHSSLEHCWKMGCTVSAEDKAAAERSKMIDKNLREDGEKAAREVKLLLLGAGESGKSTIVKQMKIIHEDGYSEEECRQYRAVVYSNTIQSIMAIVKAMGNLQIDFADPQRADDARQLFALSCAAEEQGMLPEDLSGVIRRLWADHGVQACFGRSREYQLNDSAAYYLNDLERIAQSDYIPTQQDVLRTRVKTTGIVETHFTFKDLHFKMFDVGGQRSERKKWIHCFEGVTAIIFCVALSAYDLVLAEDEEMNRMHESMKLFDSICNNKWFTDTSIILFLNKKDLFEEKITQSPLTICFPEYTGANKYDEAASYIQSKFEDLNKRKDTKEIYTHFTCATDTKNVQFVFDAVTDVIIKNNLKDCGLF
Format: biochemical
Summary of the method: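 IC50 values come from non-linear regression of dose-response curves of filter-bound GTP-gamma^35S, counted by scintillation. Membranes were from infected Sf9 cells carrying receptor plus G-protein subunits, 35 μg/tube, with 10 μM GDP present.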
`CC(Oc1ccccc1Cl)C(=O)N1CCN(CC(=O)N2CCN(C3CCC3)CC2)CC1` (stereo not drawn) [Compound 417, 1-[2-(2-chlorophenoxy)propanoyl]-4-[2-(4-cyclobutylpiperazin-1-yl)-2-oxoethyl]piperazine] was tested, and the pKi was > 6.00.
`CC(Oc1cccc(Cl)c1)C(=O)N1CCN(CC(=O)N2CCN(C3CCC3)CC2)CC1` (stereo not drawn) [Compound 418, 1-[2-(3-chlorophenoxy)propanoyl]-4-[2-(4-cyclobutylpiperazin-1-yl)-2-oxoethyl]piperazine] was tested, and the pKi was > 6.00.
For `O=C(CN1CCC(N2CCCCC2)CC1)N1CCN(C2CCC2)CC1` [Compound 421, 1′-[2-(4-cyclobutylpiperazin-1-yl)-2-oxoethyl]-1,4′-bipiperidine], the pKi was > 6.00.
`CC(C)N1C(=O)C2(CCN(CC(=O)N3CCN(C4CCC4)CC3)CC2)c2ccccc21` [Compound 422, 1′-[2-(4-cyclobutylpiperazin-1-yl)-2-oxoethyl]-1-isopropylspiro[indole-3,4′-piperidin]-2(1H)-one] was tested, and the pKi was > 6.00.
`CN1C(=O)C2(CCN(CC(=O)N3CCN(C4CCC4)CC3)CC2)c2ccccc21` [Compound 423] was tested, and the pKi was > 6.00.
`O=C(CN1CCC2(CC1)C(=O)N(c1ccccn1)c1ccccc12)N1CCN(C2CCC2)CC1` [Compound 424, 1′-[2-(4-cyclobutylpiperazin-1-yl)-2-oxoethyl]-1-pyridin-2-ylspiro[indole-3,4′-piperidin]-2(1H)-one] was tested, and the pKi was > 6.00.
`COc1ccc(CN2C(=O)c3ccccc3C23CCN(CC(=O)N2CCN(C4CCC4)CC2)CC3)c(OC)c1` [Compound 425, 1′-[2-(4-cyclobutylpiperazin-1-yl)-2-oxoethyl]-2-(2,4-dimethoxybenzyl)spiro[isoindole-1,4′-piperidin]-3(2H)-one] was tested, and the pKi was > 6.00.
With `CC(C)N1C(=O)c2ccccc2C12CCN(CC(=O)N1CCN(C3CCC3)CC1)CC2` [Compound 426, 1-[2-(4-cyclobutylpiperazin-1-yl)-2-oxoethyl]-2-isopropylspiro[isoindole-1,4′-piperidin]-3(2H)-one] the pKi was > 6.00.
With `CC1CN(c2ccc(C(F)(F)F)cn2)CCN1CC(=O)N1CCN(C2CCC2)CC1` (stereo not drawn) [Compound 427, 1-[2-(4-cyclobutylpiperazin-1-yl)-2-oxoethyl]-2-methyl-4-[5-(trifluoromethyl)pyridin-2-yl]piperazine] the pKi was > 6.00.
For `CC1CCN(C2CCN(CC(=O)N3CCN(C4CCC4)CC3)CC2)CC1` [Compound 428, 1′-[2-(4-cyclobutylpiperazin-1-yl)-2-oxoethyl]-4-methyl-1,4′-bipiperidine], the pKi was > 6.00.
In the case of `COc1ccc(CN2Cc3cccnc3C23CCN(CC(=O)N2CCN(C4CCC4)CC2)CC3)c(OC)c1` [Compound 429, 1-[2-(4-cyclobutylpiperazin-1-yl)-2-oxoethyl]-6′-(2,4-dimethoxybenzyl)-5′,6′-dihydrospiro[piperidine-4,7′-pyrrolo[3,4-b]pyridine]], the pKi was > 6.00.
For `COc1cccc(CN2C(=O)c3cccnc3C23CCN(CC(=O)N2CCN(C4CCC4)CC2)CC3)c1` [Compound 430, 1-[2-(4-cyclobutylpiperazin-1-yl)-2-oxoethyl]-6′-(3-methoxybenzyl) spiro[piperidine-4,7-pyrrolo[3,4-b]pyridin]-5′(6′H)-one], the pKi was > 6.00.
`CCCN(CC1CC1)C1CCN(CC(=O)N2CCN(C3CCC3)CC2)CC1` [Compound 431, 1-[2-(4-cyclobutylpiperazin-1-yl)-2-oxoethyl]-N-(cyclopropylmethyl)-N-propylpiperidin-4-amine] was tested, and the pKi was > 6.00.
For `CCCN(CCC)C1CCN(CC(=O)N2CCN(C3CCC3)CC2)CC1` [Compound 432, 1-[2-(4-cyclobutylpiperazin-1-yl)-2-oxoethyl]-N,N-dipropylpiperidin-4-amine], the pKi was > 6.00.
In the case of `O=C(CN1CCC2(CC1)C(=O)Nc1ccccc12)N1CCN(C2CCC2)CC1` [Compound 433, 1′-[2-(4-cyclobutylpiperazin-1-yl)-2-oxoethyl]spiro[indole-3,4′-piperidin]-2(1H)-one], the pKi was > 6.00.
